Reference: PMC9230548, “Synthesis and Biological Evaluation of Novel Synthetic Indolone Derivatives as Anti-Tumor Agents Targeting p53-MDM2 and p53-MDMX” (Molecules, 2022)
Where two headings read alike, the source gives them in different places.

Experiments:
HCT116 cell line = experiment: MTT assay, HCT116; format: cell-based; settings: Homo sapiens, HCT-116, 48 h, average of three determinations
Procedure: (§1) Compounds were tested at six concentrations (0.001–100 μM).
(§2) The cells were seeded into a 96-well plate and allowed to attach overnight, after which various concentrations of test compounds or DMSO were added to the culture medium and the cells were incubated for 48 h at 37 °C in a 5% CO2 humidified incubator. Then, 20 μL of 0.5% the fresh MTT solution was added to each well. After incubation for another 4 h, the culture medium was removed and 150 μL of DMSO was added to dissolve the formazan crystals. The absorbance at 540 nm was measured using a microplate reader. The results, expressed as IC50 values, were the average of three determinations and were calculated using nonlinear regression analysis.

A549 cell line = experiment: MTT assay, A549; format: cell-based; settings: Homo sapiens, A549, 48 h, average of three determinations
Procedure: as §1, §2

MCF7 cell line = experiment: MTT assay, MCF7; format: cell-based; settings: Homo sapiens, MCF7, 48 h, average of three determinations
Procedure: as §1, §2

MDMX = target: T1, MDMX (Homo sapiens, UniProt O15151); experiment: fluorescence polarization assay, MDMX binding
T1 sequence (O15151 1-490): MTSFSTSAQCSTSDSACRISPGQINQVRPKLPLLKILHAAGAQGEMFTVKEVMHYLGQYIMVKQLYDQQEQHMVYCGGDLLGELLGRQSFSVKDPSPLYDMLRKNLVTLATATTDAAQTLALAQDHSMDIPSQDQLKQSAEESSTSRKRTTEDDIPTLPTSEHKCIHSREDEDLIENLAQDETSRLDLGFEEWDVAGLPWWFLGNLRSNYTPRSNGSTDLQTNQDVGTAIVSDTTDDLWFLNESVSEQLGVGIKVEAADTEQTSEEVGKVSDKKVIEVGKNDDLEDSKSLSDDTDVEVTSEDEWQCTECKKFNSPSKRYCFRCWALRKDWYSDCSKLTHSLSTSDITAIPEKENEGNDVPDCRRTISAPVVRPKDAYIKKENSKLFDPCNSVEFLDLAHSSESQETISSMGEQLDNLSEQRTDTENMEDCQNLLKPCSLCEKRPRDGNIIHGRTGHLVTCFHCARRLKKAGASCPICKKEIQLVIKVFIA
Procedure: (§3) The MDM2 and MDMX binding evaluation for the target compounds was carried out using the fluorescence polarization assay.
(§4) Dose-dependent MDM2 and MDMX binding evaluations were carried out using the fluorescence polarization assay.
(§5) A total of 30 nM preincubated (30 min) MDM2 (or MDMX) and 10 nM PMDM-F peptide in reaction buffer (100 μL, potassium phosphate, 100 mM; bovine gamma globulin, 100 mg/mL; sodium azide, 0.02%) were added into a 96-well plate containing the tested compounds at pH 7.5.

MDM2 = MDM2 (Homo sapiens, UniProt Q00987); experiment: fluorescence polarization assay, MDM2 binding
Procedure: as §3, §4, §5

[1] = system: HCT116 cells with wild type p53; experiment: Western blotting of p53, MDM2 and MDMX levels; format: cell-based; settings: HCT116 cells, 0, 5, 10 and 20 μM, 48 h, Western blot
Procedure: The dual inhibition of the p53-MDM2 and p53-MDMX interactions is expected to activate p53, increasing its level in the cells with wild-type p53. In addition, p53 activation can also result in an increase in the levels of the MDM2 and MDMX proteins. To verify these predictions, Western blotting was used to assess the effects of compound A13 in the HCT 116 cells. The cells were treated with compound A13 for 48 h. Subsequently, the cells were lysed and protein extracts were analyzed for the levels of p53, MDM2, and MDMX.
The HCT116 cells with wild type p53 were treated with compound A13 (0, 5, 10, and 20 μM) for 48 h. The cells were harvested and lysed with RIPA buffer (Sigma, St. Louis, […], USA) supplemented with a protease inhibitor cocktail (Sigma), followed by centrifugation at 12,000× g for 10 min. The supernatants were heated to 100 °C with loading buffer and the total protein concentrations were determined using a Bio-Rad protein assay. Protein samples were subjected to SDS-PAGE and transferred to a PVDF membrane. The membrane was blocked with 5% non-fat milk, and then incubated with the corresponding primary antibody (MDM2, MDMX, p53, and GAPDH) at 4 °C overnight. After binding with an appropriate secondary antibody conjugated with peroxidase, proteins were visualized using the ECL chemiluminescence system. GAPDH was used as a loading control.

Sequence of MDM2 (Q00987 whole entry): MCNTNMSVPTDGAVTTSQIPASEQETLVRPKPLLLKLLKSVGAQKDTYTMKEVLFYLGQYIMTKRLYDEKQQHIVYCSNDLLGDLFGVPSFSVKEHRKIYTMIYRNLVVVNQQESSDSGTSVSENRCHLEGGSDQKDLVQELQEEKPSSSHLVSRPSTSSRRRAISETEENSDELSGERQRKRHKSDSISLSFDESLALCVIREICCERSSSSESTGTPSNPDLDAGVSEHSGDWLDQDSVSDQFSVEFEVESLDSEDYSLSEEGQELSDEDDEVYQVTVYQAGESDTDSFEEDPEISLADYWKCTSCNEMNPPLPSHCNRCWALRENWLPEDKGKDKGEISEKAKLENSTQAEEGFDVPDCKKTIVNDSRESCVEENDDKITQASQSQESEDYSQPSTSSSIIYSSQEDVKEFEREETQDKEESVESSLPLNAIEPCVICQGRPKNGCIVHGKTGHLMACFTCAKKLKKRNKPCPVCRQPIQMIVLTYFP

SMILES	IC50 (HCT116 cell line) [µM]	IC50 (A549 cell line) [µM]	IC50 (MCF7 cell line) [µM]	Ki (MDMX; read-out: Ki (μM) ± SD MDMX, fluorescence polarization, PMDM-F peptide, pH 7.5) [µM]	Ki (MDM2; read-out: Ki (μM) ± SD MDM2, fluorescence polarization, PMDM-F peptide, pH 7.5) [µM]	melting point [°C]	Ki (MDMX) [µM]	Ki (MDM2) [µM]	expression of MDM2 [1]	expression of MDMX [1]	level of p53 proteins [1]
O=C1/C(=C/c2ccc(Cl)cc2)c2ccccc2N1S(=O)(=O)c1cccc(Cl)c1 [Compound A27, (E)-3-(4-chlorobenzylidene)-1-((3-chlorophenyl)sulfonyl)indolin-2-one]	17.5 ± 1.53	20.4 ± 1.98	27.6 ± 3.81	17.3 ± 1.91	0.31 ± 0.03	184.8 to 185.6	–	–	–	–	–
O=C1/C(=C/c2cccc(Cl)c2)c2ccccc2N1S(=O)(=O)c1cccc(Cl)c1 [Compound A13, (E)-3-(3-chlorobenzylidene)-1-((3-chlorophenyl)sulfonyl)indolin-2-one]	6.17 ± 0.93	12.5 ± 2.01	11.2 ± 1.95	–	–	–	7.24 ± 0.78	0.031 ± 0.007	induced in a dose-dependent manner	induced in a dose-dependent manner	dose-dependent increase
